Results taken from US20100029654A1, “CARDIOVASCULAR COMPOSITIONS AND USE OF THE SAME FOR THE TREATMENT OF ALZHEIMER'S DISEASE” (MOUNT SINAI SCHOOL OF MEDICINE, priority 2006, published 2010).
Where a name gives a salt, the structure may show the parent alone. Read-outs that look alike come from different tables or passages of the source.

Experiments:
[1] = stability of valsartan salt (solid, aqueous; TLC); type: physicochemical; settings: 50 and 200 mg/L, 3-10 week old solutions, room temperature, dark
Protocol: The solution is cooled to room temperature slowly without external cooling to discourage precipitation of the drug.
The solution was then cooled to room temperature slowly without external cooling to discourage precipitation of the drug. […] Quality was assessed in 3-10 week old solutions stored at room temperature in dark compartments. Drinking solutions for the in vivo treatments were freshly prepared twice a week. Liquid consumption and animal body weight were monitored weekly throughout the study.

[2] = system: Aβ1-40; assay: Aβ1-40 content in conditioned medium of primary cortico-hippocampal neuron cultures from Tg2576 mice (ELISA; primary and secondary dose-response screening); type: cell-based, mouse; settings: for activity at 100 µM: 24 h, drug 100 μM, read-out: Ab1-40 (% of ctl)
In short: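 Primary cortico-hippocampal neurons from embryonic Tg2576 mice were plated at 1.0×10^5 cells per well on poly-D-lysine-coated 96-well plates in Neurobasal with 2% B27, 0.5 mM L-glutamine and 1% penicillin-streptomycin. Cultures received drug in 1% DMSO, and Aβ1-40 in the conditioned medium was measured by BioSource ELISA 24 hours after treatment, relative to vehicle controls.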

[3] = system: primary cortico-hippocampal neuron cultures
Protocol: (§3) For in vitro treatments drugs available from “The Spectrum Collection” in stocks of 10 mM in DMSO were applied directly to cultures to the desired concentrations (final 1% DMSO); control primary neuron cultures from Tg2576 embryos were treated with vehicle resulting in a final 1% DMSO.
(§4) Cell viability was assessed using a commercial available LDH assay kit according to the manufacture's instruction (Promega).

[4] = system: primary cortico-hippocampal neuron cultures; remark: listed apart in the source
[5] = system: Aβ1-42; assay: Aβ1-42 content in conditioned medium of primary cortico-hippocampal neuron cultures from Tg2576 mice (ELISA; primary and secondary dose-response screening); type: cell-based, mouse
[6] = system: Aβ1-42; assay: as above; type: cell-based, mouse; settings: for activity at 100 µM: Mus musculus, Neuron, 24 h, drug 100 μM, read-out: Ab1-42 (% of ctl)
In short: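 Primary cortico-hippocampal neurons from embryonic Tg2576 mouse brain were seeded on poly-D-lysine-coated 96-well plates at 1.0×10^5 cells per well in serum-free Neurobasal medium with 2% B27, 0.5 mM L-glutamine and 1% penicillin-streptomycin. For primary screening, duplicate wells received 100 μM drug (1% DMSO final). Vehicle-treated cultures served as controls, and Aβ1-42 in conditioned medium was measured by commercial ELISA.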

[7] = system: Tg2576 mice; assay: blood pressure (systolic, diastolic, MAP) by tail-cuff; type: in vivo, mouse
Protocol: FIG. 1 Tg2576 mice are characterized by normal blood pressure under basal conditions. Baseline measurements of systolic, diastolic blood pressure, and mean arteriole blood pressure (MAP) in ˜11 month old female Tg2576 mice. Strain-, age-, gender-matched WT mice were measured using a commercial blood pressure analysis system designed specifically for small rodents (Hatteras Instruments, NC). Following manufacturer's instruction, mice were temporarily immobilized in a restraining chamber and an inflated tail-cuff wrapped around the tail was used to measure the systolic pressure, diastolic pressure, and MAP. Each blood pressure determination was calculated as the mean of 10 individual measurements per animal (n=6-10 group).
FIG. 6A-C show body weight of mice in response to ˜3 weeks of treatment. […] FIG. 6D-F show the assessment of systolic, diastolic, and MAP blood pressure in Tg2576 mice in response to drug doses below or within the range of those prescribed in hypertension. Blood pressure measurements were conducted using a commercial blood pressure analysis system designed specifically for small rodents (Hatteras Instruments, NC). Following manufacturer's instruction, mice were temporarily immobilized in a restraining chamber and an inflated tail-cuff wrapped around the tail was used to measure pressures. Each blood pressure determination was calculated as the mean of 10 individual measurements per animal. In A-F, values represent mean±SEM values, n=3-5 mice per group. 2-tailed t-test: *P<0.05.
Assessment of blood pressure and glucose utilization. Mouse blood pressure was routinely recorded using a commercial blood pressure analysis system designed specifically for small rodents (Hatteras Instruments, NC). […] Briefly, mice were given a single dose of glucose post-prandially (i.p. 2 g/kg body weight). Blood was collected from the tail-vein periodically over a 2-hour period. Blood glycemic content was assessed using the OneTouch LifeScan System, (LifeScan, Milpitas, Calif.) following the manufacturer's instruction.

[8] = system: Aβ1-42; settings: Tg2576, short-term dosing, subclinical or clinical concentrations
Protocol: Cognitive behavioral function was assessed using the Morris water maze (MWM). After completion of the MWM test, blood pressure measurements were quantified as describe in FIG. 1 legends. Following MWM testing and blood pressure assessment, mice were sacrificed for neuropathological assessment. […] C, (inset), total immunoreactive APP content normalized to β-actin signal. In C-D, bar graphs represent group mean±SEM, n=6-10 mice per group.
(§1) FIG. 7. […] Bar graphs represent group mean±SEM, n=3 mice per group. 2-tailed t-test: *P<0.05.
(§2) Assessment of AD-type amyloid neuropathology in Tg2576 mice. For quantitative assessment of Aβ peptide in the brain, frozen pulverized tissue was homogenized in 5.0 M guanidine buffer, diluted (1:10) in phosphate-buffered saline containing 0.05% (v/v) Tween-20 and 1 mM Pefabloc protease inhibitors (Roche Biochemicals, Indianapolis, Ind.), and centrifuged for 20 min at 4° C. […] Serum Aβ content was analyzed using the same ELISA Kit, following manufacturer instructions.

[9] = system: Aβ1-42 and Aβ1-40; assay: Aβ1-42 and Aβ1-40 content in peripheral blood (plasma, serum) by ELISA; type: in vivo, mouse
Protocol: as §1, §2

[10] = system: primary cortico-hippocampal neuron cultures; assay: MTT in primary screening
[11] = system: Tg2576 mice; assay: tolerability: body weight, fluid consumption, glucose tolerance; settings: Tg2576, short-term dosing
[12] = system: primary cortico-hippocampal neuron cultures; assay: lactate dehydrogenase (LDH) activity assay in parallel neuron cultures
Protocol: as §3, §4

[13] = Primary Screening, table sorted by Aβ1-40
[14] = primary screening, table sorted by Aβ1-42

CCCCC(=O)N(Cc1ccc(-c2ccccc2-c2nnn[nH]2)cc1)[C@H](C(=O)O)C(C)C [Sodium valsartan]
stability of drinking solutions by TLC analysis [1]: no change in the recovered compound

CC(=O)[O-].CC(=O)[O-].[Cd+2] [Cadmium Acetate]
Ab1-40 (% of ctl) [2]: 29.5 % of ctl | reduced Aβ1-40 [2]: reduced Aβ1-40 | LDH (% of ctl) [3]: 889.8 % of ctl | MTT (% of ctl) [4]: 29.1 % of ctl | Ab1-42 (% of ctl) [5]: 3.8 % of ctl | reducing Aβ1-42 [5]: useful in reducing Aβ1-42

COc1cccc(OC)c1OCCNCC1COc2ccccc2O1.Cl (centres unmarked) [2-(2,6-Dimethoxyphenoxyethyl) Aminomethyl-1,4-Benzodioxane Hydrochloride]
Ab1-40 (% of ctl) [2]: 82.6 % of ctl | reduced Aβ1-40 [2]: reduced Aβ1-40 | LDH (% of ctl) [3]: 103.9 % of ctl | MTT (% of ctl) [4]: 95.5 % of ctl | Ab1-42 (% of ctl) [5]: 94.7 % of ctl

COC(=O)C1=C(C)NC(C)=C(C(=O)OCCN(C)Cc2ccccc2)C1c1cccc([N+](=O)[O-])c1 (centres unmarked) [Nicardipine Hydrochloride]
activity at 100 µM ([2]; Mus musculus, Neuron, Primary Screening, table sorted by Aβ1-40): 10.7% | activity at 100 µM ([2]; Mus musculus, Neuron, primary screening, Tg2576 neuron cultures, table sorted by Aβ1-42): 10.7% | EC50 ([2]; Mus musculus, Neuron, Table IV, dose-response 0.01-100 μM, read-out: EC50 (M): Ab-lowering activity Abeta1-40): 3.64e-05 M | reduced Aβ1-40 ([2]; primary screening, <85% of ctl): reduced Aβ1-40 | activity at 100 µM [6, 13]: 27.6% | activity at 100 µM ([6]; primary screening, Tg2576 neuron cultures, table sorted by Aβ1-42): 27.6% | reducing Aβ1-42 ([6]; primary screening, <85% of ctl): useful in reducing Aβ1-42 | systolic, diastolic, MAP blood pressure ([7]; Tg2576, 3 weeks, doses within the range used for hypertension): decreased systolic, diastolic, and MAP blood pressure | systolic, diastolic, MAP blood pressure ([7]; Tg2576, 3 weeks, doses ~3 fold below the minimal hypertension dose): did not significantly influence either systolic, diastolic or MAP blood pressure | systolic, diastolic, MAP blood pressure ([7]; Tg2576, any dose 3-18 mg/kg/day): No detectable changes | steady state levels of Aβ1-42 in hippocampal formation or cerebral cortex [8]: significantly reduced steady state levels of Aβ1-42 | plasma Aβ1-42 levels (and Aβ1-40) ([9]; Tg2576, doses ~3 fold lower than minimal hypertension dose): prevented plasma accumulation of Aβ1-42 levels | plasma Aβ1-42 (and Aβ1-40) ([9]; Tg2576, within the dosage range prescribed for hypertension): lowering responses were found | EC50 ([5]; Mus musculus, Neuron, Table IV, dose-response 0.01-100 μM, read-out: EC50 (M): Ab-lowering activity): 0.000119 M | MTT (% of ctl) [10, 13]: 52.4 % of ctl | MTT (% of ctl) [10, 14]: 52.4 % of ctl | fluid intake [11]: did not significantly influence the amount of fluid intake | LDH (% of ctl) [12, 13]: 104.2 % of ctl | LDH (at 5F-5 M) ([12]; Table IV): no change | LDH (% of ctl) [12, 14]: 104.2 % of ctl
